{"source": "patent US20260027162A1", "about": "“MUCISPIRILLUM COMPOSITIONS AND CANCER TREATMENT METHODS THEREOF” (PRESIDENT AND FELLOWS OF HARVARD COLLEGE, priority 2022, published 2026)", "test_system": "human NKT cells", "test": "XCL1 secretion from human NKT cells (ELISA)", "assay_type": "cell-based", "details": "human NKT cell, FIG. 18", "procedure": "Briefly, to generate human NKT cells the buffy coats from human donors' peripheral blood were obtained from RESEARCH BLOOD COMPONENTS LLC and separated using differential centrifugation on a FICOLL density gradient. Magnetically Isolated CD14^neg cells were cultured with 10 U/ml rhIL-2 for 5 days. Then, Vα24^+ hNKT cells were magnetically isolated and incubated for 2 days with mitomycin C-treated human dendritic cells loaded with α-galactosylceramide (α-GalCer)+20 U/ml rhIL-2. Then, the cells were harvested and further expanded for 10 days in complete RPMI medium+20 U/ml rhIL-2, with medium replacement every 2 days. Finally, the purity of Vα24Jα18^+ CD3^+ human NKT cells was estimated using flow cytometry (˜99%) and cells were frozen in complete RPMI medium+10% dimethyl sulfoxide (DMSO) at 5×10^6 cells per vial. For assaying the effect of M. schaedleri supernatant on human NKT cells, frozen cells were thawed and cultured in complete RPMI medium+rhIL-2 at cell density of 200,000 cells per well in a 96-well plate. The cells were treated with either sterile mBHI or M. schaedleri CDM at 20% volume per volume (v/v) for 16 h and then the culture supernatant was collected. As a positive control for activation, anti-human CD3 was used to stimulate the NKT cells. XCL1 concentration was measured using ONESTEP HUMAN XCL1 ELISA (ABCAM) according to the manufacturer's instructions. […]"}
{"smiles": "O=C(O)c1cccnc1", "note": "[Pool 3, nicotinic acid]", "values": [{"measurement": "NKT XCL1 production, metabolite pools", "result": "activity above that of the medium control"}]}
